Converted amounts (≈) assume the structure as drawn. Each block holds one molecule with its values, some of them ahead of it. The source made the active and inactive calls. The rule behind the calls is not given here.
Experiments:
Escherichia coli [1] = assay: Effect on growth of NDM4-positive Escherichia coli assessed as bacterial growth at 0.03125 ug/mL after 24 hrs by broth microdilution method relative to control; format: functional
Escherichia coli [2] = assay: Inhibition of NDM1 in Escherichia coli isolate 8 assessed as potentiation of meropenem-induced antibacterial activity by measuring meropenem MIC after 24 hrs by broth microdilution assay (reference value: 320 ug/ml)
Enterobacter cloacae [3] = assay: Inhibition of NDM1 in Enterobacter cloacae isolate 6 assessed as potentiation of meropenem-induced antibacterial activity by measuring meropenem MIC after 24 hrs by broth microdilution assay (reference value: 320 ug/ml)
Enterobacter cloacae [4] = assay: Inhibition of NDM1 in Enterobacter cloacae isolate 5 assessed as potentiation of meropenem-induced antibacterial activity by measuring meropenem MIC after 24 hrs by broth microdilution assay (reference value: 640 ug/ml)
Enterobacter cloacae [5] = assay: Inhibition of NDM1 in Enterobacter cloacae isolate 4 assessed as potentiation of meropenem-induced antibacterial activity by measuring meropenem MIC after 24 hrs by broth microdilution assay (reference value: 640 ug/ml)
Escherichia coli [6] = assay: Inhibition of NDM-7 in Escherichia coli isolate 2 assessed as potentiation of meropenem-induced antibacterial activity by measuring meropenem MIC after 24 hrs by broth microdilution assay (reference value: 640 ug/ml)
[7] = target: T1, Metallo-beta-lactamase NDM-4 (Escherichia coli) (UniProt H6WZS9); assay: Inhibition of NDM4 in Escherichia coli isolate 3 assessed as potentiation of meropenem-induced antibacterial activity by measuring meropenem MIC after 24 hrs by broth microdilution assay (reference value: 1280 ug/ml)
T1 sequence (whole entry): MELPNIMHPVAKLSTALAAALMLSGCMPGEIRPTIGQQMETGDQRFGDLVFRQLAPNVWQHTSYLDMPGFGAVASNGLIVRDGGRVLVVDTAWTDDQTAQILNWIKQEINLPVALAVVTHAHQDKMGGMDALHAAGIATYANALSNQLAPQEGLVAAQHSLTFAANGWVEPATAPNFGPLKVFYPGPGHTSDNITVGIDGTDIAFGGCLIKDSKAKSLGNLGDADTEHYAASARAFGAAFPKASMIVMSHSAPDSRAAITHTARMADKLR

Escherichia coli [8] = assay: Inhibition of NDM1 in Escherichia coli isolate 1 assessed as potentiation of meropenem-induced antibacterial activity by measuring meropenem MIC after 24 hrs by broth microdilution assay (reference value: 1280 ug/ml)
Klebsiella pneumoniae [9] = assay: Inhibition of IMP4 in Klebsiella pneumoniae isolate 10 assessed as potentiation of meropenem-induced antibacterial activity by measuring meropenem MIC after 24 hrs by broth microdilution method (reference value: 64 ug/ml)
Escherichia coli [10] = assay: Inhibition of IMP4 in Escherichia coli isolate 11 assessed as potentiation of meropenem-induced antibacterial activity by measuring meropenem MIC after 24 hrs by broth microdilution method (reference value: 32 ug/ml)
Klebsiella pneumoniae [11] = assay: Inhibition of IMP4 in Klebsiella pneumoniae isolate 12 assessed as potentiation of meropenem-induced antibacterial activity by measuring meropenem MIC after 24 hrs by broth microdilution method (reference value: 16 ug/ml)
Klebsiella pneumoniae [12] = assay: Inhibition of IMP4 in Klebsiella pneumoniae isolate 13 assessed as potentiation of meropenem-induced antibacterial activity by measuring meropenem MIC after 24 hrs by broth microdilution method (reference value: 320 ug/ml)
Escherichia coli [13] = assay: Inhibition of IMP4 in Escherichia coli isolate 14 assessed as potentiation of meropenem-induced antibacterial activity by measuring meropenem MIC after 24 hrs by broth microdilution method (reference value: 16 ug/ml)
Enterobacter cloacae [14] = assay: Inhibition of IMP4 in Enterobacter cloacae isolate 15 assessed as potentiation of meropenem-induced antibacterial activity by measuring meropenem MIC after 24 hrs by broth microdilution method (reference value: 32 ug/ml)
Enterobacter cloacae [15] = assay: Inhibition of IMP4 in Enterobacter cloacae isolate 16 assessed as potentiation of meropenem-induced antibacterial activity by measuring meropenem MIC after 24 hrs by broth microdilution method (reference value: 64 ug/ml)
Klebsiella pneumoniae [16] = assay: Inhibition of IMP4 in Klebsiella pneumoniae isolate 17 assessed as potentiation of meropenem-induced antibacterial activity by measuring meropenem MIC after 24 hrs by broth microdilution method (reference value: 32 ug/ml)
Escherichia coli [17] = assay: Inhibition of IMP4 in Escherichia coli isolate 18 assessed as potentiation of meropenem-induced antibacterial activity by measuring meropenem MIC after 24 hrs by broth microdilution method (reference value: 16 ug/ml)
Proteus mirabilis [18] = assay: Inhibition of IMP4 in Proteus mirabilis isolate 19 assessed as potentiation of meropenem-induced antibacterial activity by measuring meropenem MIC after 24 hrs by broth microdilution method (reference value: 320 ug/ml)
[19] = target: T1, Metallo-beta-lactamase NDM-4 (Escherichia coli); assay: Inhibition of NDM4 in Escherichia coli isolate 3 assessed as potentiation of meropenem-induced bactericidal activity at 4 times MIC incubated for 24 hrs followed by replating on agar plates for 16 to 18 hrs and measured up to 24 hrs by time kill assay
Escherichia coli [20] = assay: Effect on growth of NDM4-positive Escherichia coli assessed as bacterial growth at 64 ug/mL after 24 hrs by broth microdilution method relative to control; format: organism-based
[21] = target: T1, Metallo-beta-lactamase NDM-4 (Escherichia coli); assay: Inhibition of Escherichia coli NDM4 assessed as potentiation of meropenem-induced antibacterial activity by measuring reduction in bacterial growth at 64 ug/mL after 24 hrs by broth microdilution method relative to control
[22] = target: T1, Metallo-beta-lactamase NDM-4 (Escherichia coli); assay: Inhibition of Escherichia coli NDM4 assessed as potentiation of meropenem-induced antibacterial activity by measuring bacterial growth rate at 64 ug/mL after 24 hrs in presence of ZnCl2 by broth microdilution method relative to control
Escherichia coli [23] = assay: Effect on growth of Escherichia coli isolate 1 after 24 hrs by broth microdilution assay; format: organism-based
Escherichia coli [24] = assay: Effect on growth of Escherichia coli isolate 2 after 24 hrs by broth microdilution assay; format: organism-based
Escherichia coli [25] = assay: Effect on growth of Escherichia coli isolate 3 after 24 hrs by broth microdilution assay; format: organism-based
Enterobacter cloacae [26] = assay: Effect on growth of Enterobacter cloacae isolate 4 after 24 hrs by broth microdilution assay; format: organism-based
Enterobacter cloacae [27] = assay: Effect on growth of Enterobacter cloacae isolate 5 after 24 hrs by broth microdilution assay; format: organism-based
Enterobacter cloacae [28] = assay: Effect on growth of Enterobacter cloacae isolate 6 after 24 hrs by broth microdilution assay; format: organism-based
Citrobacter freundii = assay: Effect on growth of Citrobacter freundii isolate 7 after 24 hrs by broth microdilution assay; format: organism-based
Escherichia coli [29] = assay: Effect on growth of Escherichia coli isolate 8 after 24 hrs by broth microdilution assay; format: organism-based
Escherichia coli [30] = assay: Effect on growth of Escherichia coli isolate 9 after 24 hrs by broth microdilution assay; format: organism-based
Klebsiella pneumoniae [31] = assay: Effect on growth of Klebsiella pneumoniae isolate 10 after 24 hrs by broth microdilution method; format: organism-based
Escherichia coli [32] = assay: Effect on growth of Escherichia coli isolate 11 after 24 hrs by broth microdilution method; format: organism-based
Klebsiella pneumoniae [33] = assay: Effect on growth of Klebsiella pneumoniae isolate 12 after 24 hrs by broth microdilution method; format: organism-based
Klebsiella pneumoniae [34] = assay: Effect on growth of Klebsiella pneumoniae isolate 13 after 24 hrs by broth microdilution method; format: organism-based
Escherichia coli [35] = assay: Effect on growth of Escherichia coli isolate 14 after 24 hrs by broth microdilution method; format: organism-based
Enterobacter cloacae [36] = assay: Effect on growth of Enterobacter cloacae isolate 15 after 24 hrs by broth microdilution method; format: organism-based
Enterobacter cloacae [37] = assay: Effect on growth of Enterobacter cloacae isolate 16 after 24 hrs by broth microdilution method; format: organism-based
Klebsiella pneumoniae [38] = assay: Effect on growth of Klebsiella pneumoniae isolate 17 after 24 hrs by broth microdilution method; format: organism-based
Escherichia coli [39] = assay: Effect on growth of Escherichia coli isolate 18 after 24 hrs by broth microdilution method; format: organism-based
Proteus mirabilis [40] = assay: Effect on growth of Proteus mirabilis isolate 19 after 24 hrs by broth microdilution method; format: organism-based
[41] = test system: Escherichia coli ATCC 25922; assay: Inhibition of IMP-4 in Escherichia coli ATCC 25922 assessed as potentiation of meropenem-induced antibacterial activity by measuring zone of inhibition by agar disk diffusion method
[42] = target: T1, Metallo-beta-lactamase NDM-4 (Escherichia coli); assay: Inhibition of NDM4 in Escherichia coli ATCC 25922 assessed as potentiation of meropenem-induced antibacterial activity by measuring zone of inhibition by agar disk diffusion method
[43] = Inhibition of Stenotrophomonas maltophilia NDM1 expressed in Escherichia coli BL21 (DE3) expressing measured after 15 minutes at interval of 60 secs

SMILES: C[C@@H](O)[C@H]1C(=O)N2C(C(=O)O)=C(S[C@@H]3CN[C@H](C(=O)N(C)C)C3)[C@H](C)[C@H]12 [MEROPENEM]
Activity (Escherichia coli [1]): 95%

MIC (Escherichia coli [2]): 0.125 µg/mL | MIC (Enterobacter cloacae [3]): 0.0312 µg/mL | MIC (Enterobacter cloacae [4]): 0.25 µg/mL | MIC (Enterobacter cloacae [5]): 0.125 µg/mL | MIC (Escherichia coli [6]): 0.25 µg/mL | MIC [7]: 0.25 µg/mL | MIC (Escherichia coli [8]): 0.0312 µg/mL | MIC (Klebsiella pneumoniae [9]): 4 µg/mL | MIC (Escherichia coli [10]): 1 µg/mL | MIC (Klebsiella pneumoniae [11]): 1 µg/mL | MIC (Klebsiella pneumoniae [12]): 4 µg/mL | MIC (Escherichia coli [13]): 4 µg/mL | MIC (Enterobacter cloacae [14]): 1 µg/mL | MIC (Enterobacter cloacae [15]): 2 µg/mL | MIC (Klebsiella pneumoniae [16]): 4 µg/mL | MIC (Escherichia coli [17]): 2 µg/mL | MIC (Proteus mirabilis [18]): 4 µg/mL | Activity (Escherichia coli [20]): 95% | inhibition [21]: Active | inhibition [22]: 81% | MIC (Escherichia coli [23]): 16 µg/mL (≈ 52.8 µM) | MIC (Escherichia coli [24]): 16 µg/mL (≈ 52.8 µM) | MIC (Escherichia coli [25]): 16 µg/mL (≈ 52.8 µM) | MIC (Enterobacter cloacae [26]): 16 µg/mL (≈ 52.8 µM) | MIC (Enterobacter cloacae [27]): 16 µg/mL (≈ 52.8 µM) | MIC (Enterobacter cloacae [28]): 16 µg/mL (≈ 52.8 µM) | MIC (Citrobacter freundii): 16 µg/mL (≈ 52.8 µM) | MIC (Escherichia coli [29]): 16 µg/mL (≈ 52.8 µM) | MIC (Escherichia coli [30]): 16 µg/mL (≈ 52.8 µM) | MIC (Klebsiella pneumoniae [31]): 16 µg/mL (≈ 52.8 µM) | MIC (Escherichia coli [32]): 16 µg/mL (≈ 52.8 µM) | MIC (Klebsiella pneumoniae [33]): 16 µg/mL (≈ 52.8 µM) | MIC (Klebsiella pneumoniae [34]): 16 µg/mL (≈ 52.8 µM) | MIC (Escherichia coli [35]): 16 µg/mL (≈ 52.8 µM) | MIC (Enterobacter cloacae [36]): 16 µg/mL (≈ 52.8 µM) | MIC (Enterobacter cloacae [37]): 16 µg/mL (≈ 52.8 µM) | MIC (Klebsiella pneumoniae [38]): 16 µg/mL (≈ 52.8 µM) | MIC (Escherichia coli [39]): 16 µg/mL (≈ 52.8 µM) | MIC (Proteus mirabilis [40]): 16 µg/mL (≈ 52.8 µM)
SMILES: O=C(O)CN1CCN(CC(=O)O)CCN(CC(=O)O)CC1
inhibition [19]: Active

inhibition zone (IZ) [41]: 13.9 mm | inhibition zone (IZ) [42]: 18.2 mm | IC50 [43]: 8.47 µM
SMILES: O=C(O)CN(CCN(CC(=O)O)CC(=O)O)CC(=O)O [EDETIC ACID]

Reference: ChEMBL document CHEMBL4387701, “H2depda: An acyclic adjuvant potentiates meropenem activity in vitro against metallo-β-lactamase-producing enterobacterales” (Eur J Med Chem, 2019)
